Measurements published in US9029384B2, “Phosphatidylinositol 3-kinase inhibitors” (Gilead Calistoga LLC, priority 2012, dated 2015).
Like-named read-outs stand apart in the source and are kept apart here.

Columns and labels:
[1] = Hepatocyte stability, 0.01% final DMSO, 1 μM substrate (t1/2^b); type: in vitro ADME; conditions: human, hepatocytes, TA with 0.01% final DMSO
Description: Alternatively, assay reagents and/or conditions can be modified in determining the inhibitory activities to PI3K isomers. In additional studies, similar assay using TA and 0.01% final DMSO concentration were incubated with 1 million hepatocytes/mL at 1 μM substrate in duplicate. The incubation was carried out at 37° C. with 5% CO2 and saturating humidity.

PI3Kδ = target: T1, PI3Kδ (Homo sapiens, UniProt O00329); assay: Enzymatic activity of PI3K isoforms, TR-FRET assay (PIP3 formation); type: biochemical; conditions: PI3Kδ; TR-FRET, 2×Km ATP, 10 μM PIP2; read-out: IC50
T1 construct: made in house
T1 sequence (O00329 whole entry, canonical isoform): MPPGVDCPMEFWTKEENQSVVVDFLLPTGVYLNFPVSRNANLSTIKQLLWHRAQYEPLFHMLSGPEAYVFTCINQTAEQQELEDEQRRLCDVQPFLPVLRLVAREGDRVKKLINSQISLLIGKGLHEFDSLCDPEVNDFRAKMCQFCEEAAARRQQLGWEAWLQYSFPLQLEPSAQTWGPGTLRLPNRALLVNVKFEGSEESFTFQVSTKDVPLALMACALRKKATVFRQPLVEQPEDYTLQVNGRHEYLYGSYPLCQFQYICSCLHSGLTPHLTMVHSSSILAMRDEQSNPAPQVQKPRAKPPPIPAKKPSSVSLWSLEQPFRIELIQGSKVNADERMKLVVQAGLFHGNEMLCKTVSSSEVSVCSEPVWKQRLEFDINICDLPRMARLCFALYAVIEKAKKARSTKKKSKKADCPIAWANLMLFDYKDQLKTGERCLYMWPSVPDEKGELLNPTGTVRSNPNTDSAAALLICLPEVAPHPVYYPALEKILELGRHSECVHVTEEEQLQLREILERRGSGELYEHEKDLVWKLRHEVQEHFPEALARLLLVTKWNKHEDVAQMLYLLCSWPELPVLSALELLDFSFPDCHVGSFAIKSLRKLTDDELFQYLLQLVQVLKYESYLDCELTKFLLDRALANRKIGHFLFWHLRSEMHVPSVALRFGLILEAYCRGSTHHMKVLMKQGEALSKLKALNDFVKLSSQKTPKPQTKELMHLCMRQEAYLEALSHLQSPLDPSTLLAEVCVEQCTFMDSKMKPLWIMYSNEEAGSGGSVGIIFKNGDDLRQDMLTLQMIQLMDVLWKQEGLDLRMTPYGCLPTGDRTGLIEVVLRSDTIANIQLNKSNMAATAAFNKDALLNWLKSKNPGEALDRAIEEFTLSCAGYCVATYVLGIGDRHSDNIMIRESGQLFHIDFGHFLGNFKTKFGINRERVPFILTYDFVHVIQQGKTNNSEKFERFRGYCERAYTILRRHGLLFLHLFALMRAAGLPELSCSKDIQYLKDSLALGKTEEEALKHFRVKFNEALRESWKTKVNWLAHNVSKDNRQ
T1 sequence (P27986 whole entry partner, canonical isoform): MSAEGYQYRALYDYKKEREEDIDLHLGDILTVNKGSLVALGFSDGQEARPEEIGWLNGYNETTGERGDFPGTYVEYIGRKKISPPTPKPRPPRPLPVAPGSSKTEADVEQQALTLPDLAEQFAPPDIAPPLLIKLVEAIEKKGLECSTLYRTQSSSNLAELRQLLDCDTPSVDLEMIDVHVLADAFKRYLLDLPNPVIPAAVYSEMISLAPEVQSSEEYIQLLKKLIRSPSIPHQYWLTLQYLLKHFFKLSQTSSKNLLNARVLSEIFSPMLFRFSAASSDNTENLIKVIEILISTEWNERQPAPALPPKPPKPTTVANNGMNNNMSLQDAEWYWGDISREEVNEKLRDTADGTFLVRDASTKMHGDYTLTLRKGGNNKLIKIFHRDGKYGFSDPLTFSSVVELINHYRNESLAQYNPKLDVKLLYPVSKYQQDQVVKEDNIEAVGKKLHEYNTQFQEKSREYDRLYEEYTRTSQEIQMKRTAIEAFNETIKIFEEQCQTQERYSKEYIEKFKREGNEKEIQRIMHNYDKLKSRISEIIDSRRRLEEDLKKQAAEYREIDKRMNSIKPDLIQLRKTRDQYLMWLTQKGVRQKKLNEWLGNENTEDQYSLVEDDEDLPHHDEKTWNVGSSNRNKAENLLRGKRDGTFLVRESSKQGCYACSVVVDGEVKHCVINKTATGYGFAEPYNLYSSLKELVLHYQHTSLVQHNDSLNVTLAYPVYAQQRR
In short: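 Recombinant heterodimeric class I PI3K; PIP3 product measured by TR-FRET competition with labelled PIP3 for Eu-GRP-1 PH domain. Reaction 30 min at 25 °C, stopped with 10 mM EDTA.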

basophils = assay: Basophil activation in human whole blood (Flow2 CAST kit, CD63 positive cells); type: cell-based
Description: Effect on basophil activation was measured in human whole blood using the Flow2 CAST® kit (Buhlmann Laboratories AG, Baselstrasse, Switzerland) following the protocol provided by the manufacturer with minor modifications. Human whole blood was collected into K2-EDTA venipuncture tubes. Whole blood samples were treated with either DMSO (0.3% final) or a serial dilution of compounds in DMSO for 60 minutes at 37° C. Basophils were then activated either with anti-FcεRI mAb or with fMLP. To activate basophils using the anti-FcεRI mAb; 50 μl of whole blood was mixed with 110 μl of stimulation buffer (B-BAT-STB) and 20 μl of anti-FcεRI (B-BAT-STCON). To activate basophils with fMLP; 50 μl of whole blood was mixed with 80 μl of stimulation buffer (B-BAT-STB) and 50 μl of fMLP (B-CCR-FMLP). Stimulation buffer was used as a negative control. 20 μl of the staining reagent (combination of anti-human CD63-FITC and anti-human CCR3-PE mAbs) was then added to each tube. […] Subsequently, erythrocytes were lysed and fixed by the addition of 2 ml of lysing solution (B-BAT-LYR) for 10 min at room temperature. Cells were pelleted by centrifugation at 1200 rpm for 10 min at room temperature in a swing-out rotor. Supernatant was aspirated and cell pellet resuspended in 400 μl of wash buffer. Flow cytometric analysis of the basophil activation was performed on a FC500MPL flow cytometer (Beckman Coulter Inc., Fullerton, Calif.). CCR3-staining and side scatter were applied to gate at least 200 basophils that expressed a high density of CCR3. The percent CD63 positive cells within the gated basophil population were determined in different treatment groups and normalized to the vehicle control (0.3% DMSO) with anti-FcεRI mAb of fMLP stimulus as 100%. Final compound concentration was adjusted to correct for dilution effect of added reagents. The EC50 values were calculated from the analysis of the dose-response curves to a four-parameter equation. All EC50 values represent geometric mean values and are reported in units of nM.

[2] = 1 μM substrate, samples at 0, 1, 3, 6 hours, read-out: human hepatocyte t½^b
[3] = Homo sapiens, basophils activated with anti-FcεRI mAb or fMLP, geometric mean
[4] = basophils activated with anti-FcεRI mAb or fMLP, geometric mean

Row | SMILES | half-life at 1 μM [1, 2] | IC50 (PI3Kδ) | EC50 (basophils; [3]) | EC50 (basophils; [4]) | half-life at 1 μM ([1]; human hepatocytes, read-out: t1/2^b) | EC50 (basophils; Homo sapiens, basophil activation)
1 | CC(Nc1nc(N)nc(N)c1C#N)c1nc2cccc(Cl)c2c(=O)n1-c1cccc(Cl)c1 (single isomer, unassigned) [Compound 8a] | 3 to 6 h | < 1 nM | 1 to 10 nM |  |  | 
2 | CC(Nc1nc(N)nc(N)c1C#N)c1nc2cccc(Cl)c2c(=O)n1-c1cccc(C#N)c1 (single isomer, unassigned) [Compound 12a] | > 10 h | 1 to 10 nM | 1 to 10 nM |  |  | 
3 | CC(Nc1nc(N)nc(N)c1C#N)c1nc2ccc(F)cc2c(=O)n1-c1cccc(C#N)c1 (single isomer, unassigned) [Compound 13a] | > 10 h | 10 to 50 nM | 1 to 10 nM |  |  | 
4 | CC(Nc1nc(N)nc(N)c1C#N)c1nc2c(Cl)cccc2c(=O)n1-c1ccccc1 (single isomer, unassigned) [Compound 22a] | > 10 h | 1 to 10 nM | 1 to 10 nM |  |  | 
5 | CCC(Nc1nc(N)nc(N)c1C#N)c1nc2ccc(F)cc2c(=O)n1-c1cc(F)cc(F)c1 (single isomer, unassigned) [Compound 26a] | > 10 h | 10 to 50 nM | 1 to 10 nM |  |  | 
6 | CC(Nc1nc(N)nc(N)c1C#N)c1nc2ccccc2c(=O)n1-c1cc(F)cc(F)c1 (single isomer, unassigned) [Compound 28a] | > 10 h | 10 to 50 nM | 1 to 10 nM |  |  | 
7 | CC(Nc1nc(N)nc(N)c1C#N)c1nc2ccc(F)c(F)c2c(=O)n1-c1cc(F)cc(F)c1 (single isomer, unassigned) [Compound 29a] | > 10 h | 10 to 50 nM | 1 to 10 nM |  |  | 
8 | CC(Nc1nc(N)nc(N)c1C#N)c1nc2cccc(Cl)c2c(=O)n1-c1cccc(C(F)(F)F)c1 (single isomer, unassigned) [Compound 47a] | 3 to 6 h | 1 to 10 nM | 1 to 10 nM |  |  | 
9 | CC(Nc1nc(N)nc(N)c1C#N)c1nc2c(C(F)F)cccc2c(=O)n1-c1ccccc1 (single isomer, unassigned) [Compound 56a] | 6 to 10 h | 10 to 50 nM | 1 to 10 nM |  |  | 
10 | CC(Nc1nc(N)nc(N)c1C#N)c1nc2cccc(C(F)F)c2c(=O)n1-c1cccc(C#N)c1 (single isomer, unassigned) [Compound 63a] | > 10 h | 1 to 10 nM | 1 to 10 nM |  |  | 
11 | CC(Nc1nc(N)nc(N)c1C#N)c1nc2c(Cl)cc(F)cc2c(=O)n1-c1cc(F)cc(F)c1 (single isomer, unassigned) [Compound 89a] | 6 to 10 h | 1 to 10 nM | 1 to 10 nM |  |  | 
12 | CC(Nc1nc(N)nc(N)c1C#N)c1nc2cccc(C(N)=O)c2c(=O)n1-c1cc(F)cc(F)c1 (single isomer, unassigned) [Compound 91a] | > 10 h | 10 to 50 nM | 10 to 50 nM |  |  | 
13 | CC(Nc1nc(N)nc(N)c1C#N)c1nc2cccc(S(C)(=O)=O)c2c(=O)n1-c1cc(F)cc(C(F)F)c1 (single isomer, unassigned) [Compound 98a] | 3 to 6 h | 10 to 50 nM | > 50 nM |  |  | 
14 | COc1cccc(-n2c(C(C)Nc3nc(N)nc(N)c3C#N)nc3cccc(Cl)c3c2=O)c1C (single isomer, unassigned) [Compound 109a-2] | 1 to 3 h | < 1 nM | 1 to 10 nM |  |  | 
15 | CC(Nc1nc(N)nc(N)c1C#N)c1nc2cccc(C#N)c2c(=O)n1-c1cc(F)cc(F)c1 (single isomer, unassigned) [Compound 112a] | > 10 h | 1 to 10 nM | 1 to 10 nM |  |  | 
16 | CC(Nc1nc(N)nc(N)c1C#N)c1nc2cccc(Cl)c2c(=O)n1-c1cccc(CC(F)F)c1 (single isomer, unassigned) [Compound 120a] | 1 to 3 h | 1 to 10 nM | 1 to 10 nM |  |  | 

Row | SMILES | half-life at 1 μM [1, 2] | IC50 (PI3Kδ) | EC50 (basophils; [3]) | EC50 (basophils; [4]) | half-life at 1 μM ([1]; human hepatocytes, read-out: t1/2^b) | EC50 (basophils; Homo sapiens, basophil activation)
17 | CC(Nc1nc(N)nc(N)c1Cl)c1nc2c(F)ccc(Cl)c2c(=O)n1-c1ccccc1 (single isomer, unassigned) [Compound 127a] | 1 to 3 h | 1 to 10 nM | 1 to 10 nM |  |  | 
18 | CC(C)C(Nc1nc(N)nc(N)c1C#N)c1nc2cccc(Cl)c2c(=O)n1-c1cc(F)cc(F)c1 (single isomer, unassigned) [Compound 198a] |  | 1 to 10 nM | 1 to 10 nM |  |  | 
19 | Cc1c(F)cccc1-n1c(C(C)Nc2nc(N)nc(N)c2C#N)nc2cccc(Cl)c2c1=O (single isomer, unassigned) [Compound 199a-1] |  | < 1 nM |  | < 1 nM |  | 
20 | Cc1c(F)cccc1-n1c(C(C)Nc2nc(N)nc(N)c2C#N)nc2cccc(Cl)c2c1=O (single isomer, unassigned) [Compound 199a-2] |  | 1 to 10 nM |  | > 50 nM |  | 
21 | Cc1c(F)cc(F)cc1-n1c(C(C)Nc2nc(N)nc(N)c2C#N)nc2cccc(Cl)c2c1=O (single isomer, unassigned) [Compound 200a-1] |  | 10 to 50 nM |  | 10 to 50 nM |  | 
22 | Cc1c(F)cc(F)cc1-n1c(C(C)Nc2nc(N)nc(N)c2C#N)nc2cccc(Cl)c2c1=O (single isomer, unassigned) [Compound 200a-2] |  | 10 to 50 nM |  | 1 to 10 nM |  | 
23 | Cc1ccc(F)cc1-n1c(C(C)Nc2nc(N)nc(N)c2C#N)nc2cccc(Cl)c2c1=O (single isomer, unassigned) [Compound 201a-1] |  | < 1 nM | < 1 nM |  |  | 
24 | Cc1cccc(-n2c(C(C)Nc3nc(N)nc(N)c3C#N)nc3cccc(Cl)c3c2=O)c1C (single isomer, unassigned) [Compound 202a-1] |  | < 1 nM |  | 1 to 10 nM |  | 
25 | Cc1cccc(-n2c(C(C)Nc3nc(N)nc(N)c3C#N)nc3cccc(Cl)c3c2=O)c1C (single isomer, unassigned) [Compound 202a-2] |  | 10 to 50 nM |  | > 50 nM |  | 
26 | Cc1c(F)ccc(-n2c(C(C)Nc3nc(N)nc(N)c3C#N)nc3cccc(Cl)c3c2=O)c1C (single isomer, unassigned) [Compound 203a-1] |  | 1 to 10 nM |  | > 50 nM |  | 
27 | Cc1c(F)ccc(-n2c(C(C)Nc3nc(N)nc(N)c3C#N)nc3cccc(Cl)c3c2=O)c1C (single isomer, unassigned) [Compound 203a-2] |  | > 50 nM |  | 10 to 50 nM |  | 
28 | COc1cc(F)cc(-n2c(C(C)Nc3nc(N)nc(N)c3C#N)nc3cccc(Cl)c3c2=O)c1 (single isomer, unassigned) [Compound 205a] |  | 1 to 10 nM |  | < 1 nM |  | 
29 | COc1cccc(-n2c(C(C)Nc3nc(N)nc(N)c3C#N)nc3cccc(Cl)c3c2=O)c1 (single isomer, unassigned) [Compound 206a] |  | < 1 nM |  | < 1 nM |  | 
30 | CC[C@H](C)[C@H](Nc1nc(N)nc(N)c1C#N)c1nc2cccc(Cl)c2c(=O)n1-c1cc(F)cc(F)c1 [Compound 164a, 2,4-diamino-6-(((1S,2S)-1-(5-chloro-3-(3,5-difluorophenyl)-4-oxo-3,4-dihydroquinazolin-2-yl)-2-methylbutyl)amino)pyrimidine-5-carbonitrile] |  | 1 to 10 nM | > 50 nM |  |  | 
31 | C[C@H](Nc1ncnc(N)c1C#N)c1nc2cccc(F)c2c(=O)n1-c1cccc(F)c1 [Compound V, reference compound] |  |  |  |  | < 1 h | > 4 nM
